Assay results: paper PMC7178511, “Antimicrobial Activity and DNA/BSA Binding Affinity of Polynuclear Silver(I) Complexes with 1,2-Bis(4-pyridyl)ethane/ethene as Bridging Ligands” (Bioinorganic Chemistry and Applications, 2020)
≈ marks a conversion by molar mass, not a printed value.

Columns and labels:
[1] = test system: Escherichia coli NCTC 9001; assay: Broth microdilution MIC, E. coli; assay type: cell-based; conditions: Escherichia coli, NCTC9001; E. coli NCTC 9001; Luria-Bertani broth, 24 h, 37°C; read-out: MIC
Method: (§1) Minimal inhibitory concentration (MIC) values against Pseudomonas aeruginosa PA01, Staphylococcus aureus ATCC 43300, Salmonella enteritidis ATCC 13075, Salmonella pullorum ATCC 13036, Escherichia coli NCTC 9001, Listeria monocytogenes NCTC 11994, and Enterococcus faecalis ATCC 29212 were determined in Luria-Bertani broth (10.0 g/L tryptone, 10.0 g/L NaCl, 5.0 g/L yeast extract, pH 7.2) in accordance with the standard broth microdilution assay for bacteria that grow aerobically, as recommended by the CLSI (Clinical and Laboratory Standards Institute, Methods for Dilution Antimicrobial Susceptibility Tests for Bacteria That Grow Aerobically; Approved Standard—Tenth Edition M07-A10. CLSI). The highest tested concentration was 500 μg/mL, and the inocula were 1^·10^6 cfu/mL.

[2] = test system: Pseudomonas aeruginosa PAO1; assay: Broth microdilution MIC, P. aeruginosa; assay type: cell-based; conditions: Pseudomonas aeruginosa; P. aeruginosa PAO1; Luria-Bertani broth, 24 h, 37°C; read-out: MIC
Method: as §1

[3] = test system: Listeria monocytogenes NCTC 11994; assay: Broth microdilution MIC, L. monocytogenes; assay type: cell-based; conditions: Listeria monocytogenes, NCTC11994; L. monocytogenes NCTC 11994; Luria-Bertani broth, 24 h, 37°C; read-out: MIC
Method: as §1

[4] = test system: Staphylococcus aureus ATCC 43300; assay: Broth microdilution MIC, S. aureus; assay type: cell-based; conditions: Staphylococcus aureus, ATCC43300; S. aureus ATCC 43300; Luria-Bertani broth, 24 h, 37°C; read-out: MIC
Method: as §1

[5] = test system: Enterococcus faecalis ATCC 29212; assay: Broth microdilution MIC, E. faecalis; assay type: cell-based; conditions: Enterococcus faecalis, ATCC29212; E. faecalis ATCC 29212; Luria-Bertani broth, 24 h, 37°C; read-out: MIC
Method: as §1

[6] = test system: Salmonella enteritidis ATCC 13075; assay: Broth microdilution MIC, S. enteritidis; assay type: cell-based; conditions: Salmonella enterica; S. enteritidis ATCC 13075; Luria-Bertani broth, 24 h, 37°C; read-out: MIC
Method: as §1

[7] = test system: Salmonella pullorum ATCC 13036; assay: Broth microdilution MIC, S. pullorum; assay type: cell-based; conditions: Salmonella enterica; S. pullorum ATCC 13036; Luria-Bertani broth, 24 h, 37°C; read-out: MIC
Method: as §1

C. albicans ATCC 10231 = assay: Broth microdilution MIC, C. albicans; assay type: cell-based, Candida albicans; conditions: Candida albicans, ATCC10231; C. albicans ATCC 10231; RPMI 1640 with 2% glucose; read-out: MIC
Method: (§2) Stock solutions of bpa, bpe, and silver(I) complexes 1–3 were prepared fresh in DMSO (50 mg/mL) and kept at 4°C prior to use. Susceptibility testing of Candida spp. (C. albicans ATCC 10231, C. krusei ATCC 6258, C. parapsilosis ATCC 22019, and C. glabrata ATCC 2001) was performed according to CLSI broth microdilution guidelines (Clinical and Laboratory Standards Institute, Reference Method for Broth Dilution Antifungal Susceptibility Testing of Yeasts—Third Edition: Approved Standard M27-A3; Clinical and Laboratory Standards Institute, Reference Method for Broth Dilution Antifungal Susceptibility Testing of Yeasts: Fourth Informational Supplement M27-S4), in RPMI 1640 medium (Roswell Park Memorial Institute medium) containing 2% glucose (w/v). The highest tested concentration was 500 μg/mL, and the inocula were 1^·\10^5 colony forming units (cfu)/mL.

[8] = test system: C. parapsilosis ATCC 22019; assay: Broth microdilution MIC, C. parapsilosis; assay type: cell-based, Candida parapsilosis; conditions: Lodderomyces parapsilosis, ATCC22019; C. parapsilosis ATCC 22019; RPMI 1640 with 2% glucose; read-out: MIC
Method: as §2

C. glabrata ATCC 2001 = assay: Broth microdilution MIC, C. glabrata; assay type: cell-based, Candida glabrata; conditions: Nakaseomyces glabratus, ATCC2001; C. glabrata ATCC 2001; RPMI 1640 with 2% glucose; read-out: MIC
Method: as §2

C. krusei ATCC 6258 = assay: Broth microdilution MIC, C. krusei; assay type: cell-based, Candida krusei; conditions: Pichia kudriavzevii, ATCC6258; C. krusei ATCC 6258; RPMI 1640 with 2% glucose; read-out: MIC
Method: as §2

[9] = MTT assay on a human fibroblast cell line; assay type: cell-based; conditions: human, MRC-5 human lung fibroblast cells, MRC-5, MTT, read-out: IC50 (cytotoxic effect on MRC-5 cells)
Method: Antiproliferative activity was tested by 3-(4,5-dimethylthiazol-2-yl)-2,5-diphenyltetrazolium bromide (MTT) assay on a human lung fibroblast cell line (MRC-5; ATCC collection). Pregrown (24 h) cell monolayers were incubated in the media containing the tested compounds at concentrations ranging from 5 to 500 μg/mL and the cell viability was measured after 48 h. RPMI 1640 medium supplemented with 100 μg/mL streptomycin, 100 U/mL penicillin, and 10% (v/v) FBS (all from Sigma, Munich, Germany) was used for the cultivation of MRC-5 cell line. Cells were maintained as a monolayer (1^·10^4 cells per well) in RPMI 1640 and grown in a humidified atmosphere of 95% air and 5% CO2 at 37°C. The extent of MTT reduction was measured spectrophotometrically at 540 nm using Tecan Infinite 200 Pro multiplate reader (Tecan Group Ltd, Männedorf, Switzerland), and the cell survival was expressed as a percentage of the control (untreated cells). Cytotoxicity was expressed as the concentration of the compound inhibiting cell growth by 50% (IC50).

[10] = test system: investigated bacterial strains; assay: Broth microdilution MIC, panel of bacterial strains; assay type: cell-based
Method: as §1

calf thymus DNA (ctDNA) = conditions: proven DNA intercalator; cited from earlier work

| Compound | MIC [1] | MIC [2] | MIC [3] | MIC [4] | MIC [5] | MIC [6] | MIC [7] | MIC (C. albicans ATCC 10231) | MIC [8] | MIC (C. glabrata ATCC 2001) | MIC (C. krusei ATCC 6258) | IC50 at 48 h [9] | MIC / antibacterial activity [10] | Hypochromism (calf thymus DNA (ctDNA)) |
| --- | --- | --- | --- | --- | --- | --- | --- | --- | --- | --- | --- | --- | --- | --- |
| C(=Cc1ccncc1)c1ccncc1 [bpe, 1,2-bis(4-pyridyl)ethene, reference compound] | 250 µg/mL (≈ 1370 µM) | 500 µg/mL (≈ 2740 µM) | 100 µg/mL (≈ 549 µM) | > 500 µg/mL | > 500 µg/mL | > 500 µg/mL | > 500 µg/mL | 200 µg/mL (≈ 1100 µM) | 125 µg/mL (≈ 686 µM) | 100 µg/mL (≈ 549 µM) | 200 µg/mL (≈ 1100 µM) | 220 µg/mL (≈ 1210 µM) | not significant |  |
| C[n+]1c2ccccc2c(-c2c3ccccc3[n+](C)c3ccccc23)c2ccccc21 [lucigenin] |  |  |  |  |  |  |  |  |  |  |  |  |  | 50% |
